Experiment: xn = mol fraction of the nth substance listed
Details: 100 kPa, Liquid; for viscosity: Cone and plate viscometry; for mass density: Vibrating tube method

CCCCCCn1cc[n+](C)c1.O=[N+]([O-])c1cn[n-]c1 [1-hexyl-3-methylimidazolium 4-nitropyrazolide] + CCCCCCCCCCCCCC[P+](CCCCCC)(CCCCCC)CCCCCC.O=S(=O)([N-]S(=O)(=O)C(F)(F)F)C(F)(F)F
Details	mass density, x1 = 0.25 [kg/m3]	mass density, x1 = 0.5 [kg/m3]	mass density, x1 = 0.749 [kg/m3]	viscosity, x1 = 0.101 [mPa·s]	viscosity, x1 = 0.299 [mPa·s]	viscosity, x1 = 0.5 [mPa·s]	viscosity, x1 = 0.7 [mPa·s]	viscosity, x1 = 0.9 [mPa·s]
278.15 K	–	–	–	1201	1360	1582	2039	2649
283.15 K	1081.8	1090.7	1105.6	816	914	1045	1290	1540
288.15 K	1078.2	1087.1	1102	570	629	707	840	935
293.15 K	1074.6	1083.6	1098.5	410	445	492	566	597
295.15 K	1073.1	1082.2	1097.2	–	–	–	–	–
298.15 K	1071	1080.1	1095.2	302	323	352	395	400
303.15 K	1067.4	1076.6	1091.7	228	241	259	285	278
308.15 K	1063.8	1073.1	1088.3	175	184	195	211	200
313.15 K	1060.3	1069.6	1084.9	138	142	150	160	149
318.15 K	1056.8	1066.2	1081.6	110	113	118	124	113
323.15 K	1053.4	1062.8	1078.3	90	91	94	99	89
328.15 K	1049.9	1059.4	1075	–	–	–	–	–
333.15 K	1046.4	1056	1071.7	–	–	–	–	–
338.15 K	1042.9	1052.6	1068.3	–	–	–	–	–
343.15 K	1039.4	1049.2	1065	–	–	–	–	–
348.15 K	1035.9	1045.8	1061.7	–	–	–	–	–
353.15 K	1032.5	1042.4	1058.5	–	–	–	–	–

From the NIST ThermoML archive (doi:10.1021/acs.jced.7b00221)
